According to patent publication US8871756B2 (Hoffmann-La Roche Inc., priority 2011, dated 2014):

Tested on: RSV Long strain
Assay: Viral cytopathic effect (CPE) assay, anti-RSV activity
Type: cell-based, Respiratory Syncytial Virus
Settings: human respiratory syncytial virus, 144 h, RSV Long strain (ATCC); cell viability after 6 days, Cell Counting kit-8
In short: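 Cells (6×10^3/well, DMEM with 10% FBS) were infected next day with RSV Long strain, at a dose giving approximately 80–90% CPE, alongside serial half-log compound dilutions. Viability was read after 6 days by CCK-8 absorbance at 450 nm (reference 630 nm), and EC50 was derived from it.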

| EC50 | Compound |
| --- | --- |
| 5.48 µM | C[S+]([O-])c1ccc2nc(N3CCS(=O)(=O)c4ccccc4C3)cc(NCCCN)c2c1 (stereo not drawn) [Example 80, N-[2-(1,1-Dioxido-2,3-dihydro-1,4-benzothiazepin-4(5H)-yl)-6-(methylsulfinyl)quinolin-4-yl]propane-1,3-diamine] |
| 0.353 µM | NCCCNc1cc(N2CCS(=O)(=O)c3ccccc3C2)nc2ccc(C(N)=O)cc12 [Example 81, 4-[(3-Aminopropyl)amino]-2-(1,1-dioxido-2,3-dihydro-1,4-benzothiazepin-4(5H)-yl)quinoline-6-carboxamide] |
| 0.014 µM | CC(O)c1ccc2nc(N3CCS(=O)(=O)c4ccccc4C3)cc(NCCCN)c2c1 (stereo not drawn) [Example 82, 1-{4-[(3-Aminopropyl)amino]-2-(1,1-dioxido-2,3-dihydro-1,4-benzothiazepin-4(5H)-yl)quinolin-6-yl}ethanol] |
| 0.662 µM | Cc1ccc2nc(N3CCS(=O)(=O)c4ccccc4C3)cc(NCCC#N)c2c1 [Example 83, 3-{[2-(1,1-Dioxido-2,3-dihydro-1,4-benzothiazepin-4(5H)-yl)-6-methylquinolin-4-yl]amino}propanenitrile] |
| 2.96 µM | Cc1ccc2nc(N3CCS(=O)(=O)c4ccccc4C3)cc(NCCc3nn[nH]n3)c2c1 [Example 84, 2-(1,1-Dioxido-2,3-dihydro-1,4-benzothiazepin-4(5H)-yl)-6-methyl-N-[2-(1H-tetrazol-5-yl)ethyl]quinolin-4-amine] |
| 0.008 µM | NCCNc1cc(N2CCS(=O)(=O)c3ccccc3C2)nc2ccc(N)cc12 [Example 85, N^˜4^˜-(2-Aminoethyl)-2-(1,1-dioxido-2,3-dihydro-1,4-benzothiazepin-4(5H)-yl)quinoline-4,6-diamine] |
| 2.22 µM | Cc1ccc2nc(N3CCS(=O)(=O)c4ccccc4C3)cc(N3C(=O)NCC34COC4)c2c1 [Example 86, 5-[2-(1,1-Dioxido-2,3-dihydro-1,4-benzothiazepin-4(5H)-yl)-6-methylquinolin-4-yl]-2-oxa-5,7-diazaspiro[3.4]octan-6-one] |
| 0.096 µM | Cc1ccc2nc(N3CCS(=O)(=O)c4ccccc4C3)nc(NCC(O)CO)c2c1 (stereo not drawn) [Example 87-1, 3-{[2-(1,1-Dioxido-2,3-dihydro-1,4-benzothiazepin-4(5H)-yl)-6-methylquinazolin-4-yl]amino}propane-1,2-diol] |
| 9.31 µM | O=S1(=O)CCN(c2nc(NCC(O)CO)c3cc(Cl)ccc3n2)Cc2ccccc21 (stereo not drawn) [Example 87-2] |
| 0.007 µM | Cc1ccc2nc(N3CC[S+]([O-])c4ccccc4C3)nc(NCCN)c2c1 (stereo not drawn) [Example 89, N-[6-Methyl-2-(1-oxido-2,3-dihydro-1,4-benzothiazepin-4(5H)-yl)quinazolin-4-yl]ethane-1,2-diamine] |
| 0.005 µM | Cc1ccc2nc(N3CCS(=O)(=O)c4ccccc4C3)nc(NCCN)c2c1 [Example 90, N-[2-(1,1-Dioxido-2,3-dihydro-1,4-benzothiazepin-4(5H)-yl)-6-methylquinazolin-4-yl]ethane-1,2-diamine] |
| 0.004 µM | Cc1ccc2nc(N3CC[S+]([O-])c4ccccc4C3)nc(NC3(CN)COC3)c2c1 (stereo not drawn) [Example 91, N-[3-(Aminomethyl)oxetan-3-yl]-6-methyl-2-(1-oxido-2,3-dihydro-1,4-benzothiazepin-4(5H)-yl)quinazolin-4-amine] |
| 0.005 µM | Cc1ccc2nc(N3CC[S+]([O-])c4ccccc4C3)nc(N3CCC(N)C3)c2c1 (stereo not drawn) [Example 93-1, 1-[6-Methyl-2-(1-oxido-2,3-dihydro-1,4-benzothiazepin-4(5H)-yl)quinazolin-4-yl]pyrrolidin-3-amine] |
| 0.009 µM | Cc1ccc2nc(N3CCS(=O)(=O)c4ccccc4C3)nc(NC3CNC3)c2c1 [Example 93-2, N-(Azetidin-3-yl)-6-methyl-2-(1,1-dioxido-2,3-dihydro-1,4-benzothiazepin-4(5H)-yl)quinazolin-4-amine] |
| 6.53 µM | Cc1ccc2nc(N3CCS(=O)(=O)c4ccccc4C3)cc(CC[C@@H]3COC(N)=N3)c2c1 [Example 94, (4R)-4-{2-[2-(1,1-Dioxido-2,3-dihydro-1,4-benzothiazepin-4(5H)-yl)-6-methylquinolin-4-yl]ethyl}-4,5-dihydro-1,3-oxazol-2-amine] |
| 3.04 µM | CCc1ccc2nc(N3CCS(=O)(=O)c4ccccc4C3)cc(CCC(=O)O)c2c1 [Example 95, 3-[2-(1,1-Dioxido-2,3-dihydro-1,4-benzothiazepin-4(5H)-yl)-6-ethylquinolin-4-yl]propanoic acid] |
| 2.83 µM | Cc1ccc2nc(N3CCS(=O)(=O)c4ccccc4C3)cc(CCCN)c2c1 [Example 96, 3-[2-(1,1-Dioxido-2,3-dihydro-1,4-benzothiazepin-4(5H)-yl)-6-methylquinolin-4-yl]propan-1-amine] |
| 0.177 µM | Cc1ccc2nc(N3CCS(=O)(=O)c4ccccc4C3)cc(OCCN)c2c1 [Example 97, 2-{[2-(1,1-Dioxido-2,3-dihydro-1,4-benzothiazepin-4(5H)-yl)-6-methylquinolin-4-yl]oxy}ethanamine] |
| 0.778 µM | Cc1ccc2nc(N3CCS(=O)(=O)c4ccccc4C3)cc(OC3CCNC3)c2c1 (stereo not drawn) [Example 98-1, 4-[6-Methyl-4-(pyrrolidin-3-yloxy)quinolin-2-yl]-2,3,4,5-tetrahydro-1,4-benzothiazepine 1,1-dioxide] |
| 3.16 µM | Cc1ccc2nc(N3CCS(=O)(=O)c4ccccc4C3)cc(OC3CCNCC3)c2c1 [Example 98-2] |
| 3 µM | Cc1ccc2nc(N3CCS(=O)(=O)c4ccccc4C3)cc(C)c2c1 [Example 99, 4-(4,6-Dimethylquinolin-2-yl)-2,3,4,5-tetrahydro-1,4-benzothiazepine 1,1-dioxide] |
| 9.19 µM | Cc1ccc2nc(N3CCS(=O)(=O)c4ccccc4C3)cc(C(=O)C3CCNCC3)c2c1 [Example 100, [2-(1,1-Dioxido-2,3-dihydro-1,4-benzothiazepin-4(5H)-yl)-6-methylquinolin-4-yl](piperidin-4-yl)methanone] |
| 8.58 µM | Cc1ccc2nc(N3CCS(=O)(=O)c4ccccc4C3)cc(-c3cc[nH]n3)c2c1 [Example 101, 4-[6-Methyl-4-(1H-pyrazol-3-yl)quinolin-2-yl]-2,3,4,5-tetrahydro-1,4-benzothiazepine 1,1-dioxide] |
| 9.76 µM | Cc1ccc2nc(N3CCS(=O)(=O)c4ccccc4C3)cc(S(=O)(=O)c3ccccc3)c2c1 [Example 102, 4-[6-Methyl-4-(phenylsulfonyl)quinolin-2-yl]-2,3,4,5-tetrahydro-1,4-benzothiazepine 1,1-dioxide] |
| 0.202 µM | Cc1ccc2nc(N3CCS(=O)(=O)c4ccccc4C3)cc(S(=O)(=O)NCCN)c2c1 [Example 103, N-(2-Aminoethyl)-2-(1,1-dioxido-2,3-dihydro-1,4-benzothiazepin-4(5H)-yl)-6-methylquinoline-4-sulfonamide] |
| 0.89 µM | COC(=O)c1ccc2nc(N3CCS(=O)(=O)c4ccccc4C3)cc(NCC3(CN)COC3)c2c1 [Example 104, Methyl 4-({[3-(aminomethyl)oxetan-3-yl]methyl}amino)-2-(1,1-dioxido-2,3-dihydro-1,4-benzothiazepin-4(5H)-yl)quinoline-6-carboxylate] |
| 1.08 µM | NCC1(CNc2cc(N3CCS(=O)(=O)c4ccccc4C3)nc3ccc(C(=O)O)cc23)COC1 [Example 105, 4-({[3-(Aminomethyl)oxetan-3-yl]methyl}amino)-2-(1,1-dioxido-2,3-dihydro-1,4-benzothiazepin-4(5H)-yl)quinoline-6-carboxylic acid] |
